Measured values taken from US8309721B2, “HSP90 inhibitory carbazole derivatives, compositions containing same and use thereof” (Sanofi, priority 2008, dated 2012).

Each molecule was assayed on Her2 receptor expression at the surface of SKBr3 cells (assay: phenotypic SKBr3/HER2 cell test (Her2 surface expression by flow cytometry)). Conditions: 24 h incubation, inhibition of Her2 expression.
Type: cell-based
Protocol: The cellular activity of the compounds can in particular be evaluated by means of the phenotypic “SKBr3/HER2” cell test described below:
The SKBr3 […] adenocarcinoma cells, overexpressing the Her2 tyrosine kinase receptor, originate from the ATCC (HTB-30) and are cultured in McCoy's 5A medium supplemented with 10% FBS and 1% L-glutamine.
The cells are seeded in 12-well plates at a proportion of 125 000 cells per well in 1 ml of complete medium. The following day, the products are added at varying concentrations. After incubation for 24 h, the cells are trypsinized, washed with PBS and incubated with 100 ng of anti-Her2 antibody coupled to PE (Phycoerythrin) (BD 340552) for 30 minutes at 4° C. in the dark. The fluorescence due to the expression of the Her2 receptor at the surface of the cells is then read using a FACS Calibur flow cytometer (Becton-Dickinson). The percentage inhibition of Her2 expression as a function of the concentrations of product tested is fitted by the nonlinear regression technique (XLfit, equation 205) in order to measure an IC50 for each product.

Compound | IC50 [nM]
NC(=O)c1ccc(-n2c3ccccc3c3c(-c4nc5cc(F)ccc5[nH]4)cccc32)cc1N[C@H]1CCCC[C@@H]1CO (single isomer, unassigned) [Example 131] | < 1000

Same assay, conditions: Homo sapiens, SK-BR-3, 24 h incubation, inhibition of Her2 expression

Compound | IC50 [nM]
NC(=O)c1ccc(-n2c3ccccc3c3c(-c4nc5ccc(F)cc5[nH]4)cccc32)cc1NC[C@@H]1CCCC[C@@H]1O (racemic) [Example 93] | < 1000
NC(=O)c1ccc(-n2c3ccccc3c3c(-c4cnc5ccccc5c4)cccc32)cc1NC[C@@H]1CCCC[C@@H]1O (racemic) [Example 95] | < 1000
NC(=O)c1ccc(-n2c3ccccc3c3c(-c4nc5ccc(F)cc5[nH]4)cccc32)cc1N[C@H]1CCCC[C@H]1CO (racemic) [Example 96] | < 1000
NC(=O)c1ccc(-n2c3ccccc3c3c(-c4nc5ccc(F)cc5[nH]4)cccc32)cc1N[C@H]1CCCC[C@@H]1CO (racemic) [Example 97] | < 1000
NC(=O)c1ccc(-n2c3ccccc3c3c(-c4cnc5ccccc5c4)cccc32)cc1N[C@H]1CCCC[C@@H]1CO (racemic) [Example 100, 2-[1(R,S),2(R,S)-2-hydroxymethyl-cyclohexyl-1-amino]-4-[4-(quinolin-3-2-yl)-9H-carbazol-9-yl]benzamide] | < 1000
NC(=O)c1ccc(-n2c3ccccc3c3c(-c4cnc5ccccc5c4)cccc32)cc1N[C@H]1CCCC[C@H]1CO (racemic) [Example 101, 2-[1(S,R),2(R,S)-2-hydroxymethylcyclohexyl-1-amino]-4-[4-(quinolin-3-2-yl)-9H-carbazol-9-yl]benzamide] | < 1000
NC(=O)c1ccc(-n2c3ccccc3c3c(-c4nc5ccc(F)cc5[nH]4)cccc32)cc1N[C@H]1CCC[C@H]1CO (racemic) [Example 118, 4-[4-(6-fluoro-1H-benzimidazol-2-yl)-9H-carbazol-9-yl]-2-[2(R,S)-hydroxymethylcyclopentan-1(S,R)-amino]benzamide] | < 1000
NC(=O)c1ccc(-n2c3ccccc3c3c(-c4nc5cc(F)ccc5[nH]4)cccc32)cc1N[C@H]1CCCC[C@@H]1CO (single isomer, unassigned) [Example 130] | < 1000
COCCCOc1cc(-n2c3ccccc3c3c(-c4nc5ccc(F)cc5[nH]4)cccc32)ccc1C(N)=O [Example 60, 4-[4-(6-fluoro-1H-benzimidazol-2-yl)-9H-carbazol-9-yl]-2-(3-methoxypropoxy)benzamide] | 1000 to 10000
CN1CCC(O)(CCNc2cc(-n3c4ccccc4c4c(-c5nc6ccc(F)cc6[nH]5)cccc43)ccc2C(N)=O)CC1 [Example 70, 4-[4-(6-fluoro-1H-benzimidazol-2-yl)-9H-carbazol-9-yl]-2-[2-(4-hydroxy-1-methylpiperidin-4-yl)ethylamino]benzamide] | < 1000
NC(=O)c1ccc(-n2c3ccccc3c3c(-c4nc5ccc(F)cc5[nH]4)cccc32)cc1NCCC1(O)CCCC1 [Example 71, 4-[4-(6-fluoro-1H-benzimidazol-2-yl)-9H-carbazol-9-yl]-2-[2-(1-hydroxycyclopentyl)ethylamino]benzamide] | < 1000
CC(C)(O)CCNc1cc(-n2c3ccccc3c3c(-c4cnc5ccccc5c4)cccc32)ccc1C(N)=O [Example 72, 2-(3-hydroxy-3-methylbutylamino)-4-[4-(quinolin-3-yl)-9H-carbazol-9-yl]benzamide] | < 1000
NC(=O)c1ccc(-n2c3ccccc3c3c(-c4cncc(O)c4)cccc32)cc1N[C@H]1CC[C@H](O)CC1 [Example 73, 2-[(4-trans-hydroxycyclohexyl)amino]-4-[4-(5-hydroxypyridin-3-yl)-9H-carbazol-9-yl]benzamide] | < 1000
NC(=O)c1ccc(-n2c3ccccc3c3c(-c4ccc(C(F)(F)F)nc4)cccc32)cc1N[C@H]1CC[C@H](O)CC1 [Example 74, 2-[(4-trans-hydroxycyclohexyl)amino]-4-{4-[6-(trifluoromethyl)pyridin-3-yl]-9H-carbazol-9-yl}benzamide] | 1000 to 10000
NC(=O)c1ccc(-n2c3ccccc3c3c(-c4nc5ccc(F)cc5[nH]4)cccc32)cc1NCCCF [Example 75, 4-[4-(6-fluoro-1H-benzimidazol-2-yl)-9H-carbazol-9-yl]-2-(3-fluoropropylamino)benzamide] | < 1000
NC(=O)c1ccc(-n2c3ccccc3c3c(-c4cnc5ccccc5c4)cccc32)cc1NCCCF [Example 76, 2-(3-fluoropropylamino)-4-[4-(quinolin-3-yl)-9H-carbazol-9-yl]benzamide] | < 1000
NC(=O)c1ccc(-n2c3ccccc3c3c(-c4cnc5ccccc5c4)cccc32)cc1NCCF [Example 77, 2-(2-fluoroethylamino)-4-[4-(quinolin-3-yl)-9H-carbazol-9-yl]benzamide] | < 1000

Compound | IC50 [nM]
NC(=O)c1ccc(-n2c3ccccc3c3c(-c4cnc5ccccc5c4)cccc32)cn1 [Example 78, 5-[4-(quinolin-3-yl)-9H-carbazol-9-yl]pyridin-2-amide] | 1000 to 10000
NC(=O)c1ccc(-n2c3ccccc3c3c(-c4nc5ccc(F)cc5[nH]4)cccc32)cc1NCCc1ccccn1 [Example 79, 4-[4-(6-fluoro-1H-benzimidazol-2-yl)-9H-carbazol-9-yl]-2-[2-(pyridin-2-yl)ethylamino]benzamide] | < 1000
NC(=O)c1ccc(-n2c3ccccc3c3c(-c4cnc5ccccc5c4)cccc32)cc1NCCc1ccccn1 [Example 80, 4-[4-(quinolin-3-yl)-9H-carbazol-9-yl]-2-[2-(pyridin-2-yl)ethylamino]benzamide] | < 1000
NC(=O)c1ccc(-n2c3ccccc3c3c(-c4nc5ccc(F)cc5[nH]4)cccc32)cc1NCc1ccccn1 [Example 81, 4-[4-(6-fluoro-1H-benzimidazol-2-yl)-9H-carbazol-9-yl]-2-[(pyridin-2-ylmethyl)amino]benzamide] | < 1000
NC(=O)c1ccc(-n2c3ccccc3c3c(-c4nc5ccc(F)cc5[nH]4)cccc32)cc1NCCn1ccnc1 [Example 82, 4-[4-(6-fluoro-1H-benzimidazol-2-yl)-9H-carbazol-9-yl]-2-[2-(1H-imidazol-1-yl]ethylamino]benzamide] | < 1000
CC1(C)CC(Nc2cc(-n3c4ccccc4c4c(-c5nc6ccc(F)cc6[nH]5)cccc43)ccc2C(N)=O)CC(C)(C)N1 [Example 83] | < 1000
CC1(C)CC(Nc2cc(-n3c4ccccc4c4c(-c5cnc6ccccc6c5)cccc43)ccc2C(N)=O)CC(C)(C)N1 [Example 84, 4-[4-(quinolin-3-yl)-9H-carbazol-9-yl]-2-(2,2,6,6-tetramethyl-1H-piperidin-4-ylamino]benzamide] | < 1000
CN1C(C)(C)CC(Nc2cc(-n3c4ccccc4c4c(-c5nc6ccc(F)cc6[nH]5)cccc43)ccc2C(N)=O)CC1(C)C [Example 85, 4-[4-(6-fluoro-1H-benzimidazol-2-yl)-9H-carbazol-9-yl]-2-(1,2,2,6,6-pentamethyl-1H-piperidin-4-ylamino]benzamide] | < 1000
NC(=O)c1ccc(-n2c3ccccc3c3c(-c4cnc5ccccc5c4)cccc32)cc1NCc1ccccn1 [Example 86, 2-[(pyridin-2-ylmethyl)amino]-4-[4-(quinolin-3-yl)-9H-carbazol-9-yl]benzamide] | < 1000
NC(=O)c1ccc(-n2c3ccccc3c3c(-c4cnc5ccccc5c4)cccc32)cc1NCCn1ccnc1 [Example 87, 2-[2-(1H-imidazol-1-yl)ethylamino]-4-[4-(quinolin-3-yl)-9H-carbazol-9-yl]benzamide] | < 1000
CN1C(C)(C)CC(Nc2cc(-n3c4ccccc4c4c(-c5cnc6ccccc6c5)cccc43)ccc2C(N)=O)CC1(C)C [Example 88, (1,2,2,6,6-pentamethyl-1H-piperidin-4-ylamino]-4-[4-(quinolin-3-yl)-9H-carbazol-9-yl]-2-benzamide] | < 1000
NC(=O)c1ccc(-n2c3ccccc3c3c(-c4nc5ccc(F)cc5[nH]4)cccc32)cc1NC1CCCC(O)C1 [Example 89, 4-[4-(6-fluoro-1H-benzimidazol-2-yl)-9H-carbazol-9-yl]-2-(3(R,S)-hydroxycyclohexyl-1(R,S)-amino)benzamide] | < 1000
CC(C)(O)CNc1cc(-n2c3ccccc3c3c(-c4nc5ccc(F)cc5[nH]4)cccc32)ccc1C(N)=O [Example 90, 4-[4-(6-fluoro-1H-benzimidazol-2-yl)-9H-carbazol-9-yl]-2-(2-hydroxy-2-methylpropylamino)benzamide] | < 1000
CC(C)(O)CNc1cc(-n2c3ccccc3c3c(-c4cnc5ccccc5c4)cccc32)ccc1C(N)=O [Example 91, (2-hydroxy-2-methylpropylamino)-4-[4-(quinolin-3-yl)-9H-carbazol-9-yl]-2-benzamide] | < 1000
NC(=O)c1ccc(-n2c3ccccc3c3c(-c4nc5ccc(F)cc5[nH]4)cccc32)cc1NCc1cocn1 [Example 92, 4-[4-(6-fluoro-1H-benzimidazol-2-yl)-9H-carbazol-9-yl]-2-[(oxazol-4-ylmethyl)amino]benzamide] | < 1000
NC(=O)c1ccc(-n2c3ccccc3c3c(-c4cnc5ccccc5c4)cccc32)cc1NCc1cocn1 [Example 94, 2-[(oxazol-4-ylmethyl)amino]-4-[4-(quinolin-3-yl)-9H-carbazol-9-yl]benzamide] | < 1000
NC(=O)c1ccc(-n2c3ccccc3c3c(-c4nc5ccc(F)cc5[nH]4)cccc32)cc1N[C@H]1CN2CCC1CC2 [Example 98, 2-{(R)-(1-azabicyclo[2.2.2]oct-3-yl)amino}-4-[4-(6-fluoro-1H-benzimidazol-2-yl)-9H-carbazol-9-yl]benzamide] | < 1000
